Experimental data taken from PMC5216056 (Nature Communications, 2017).
Where “and” joins values, the source holds several entries; their conditions need not be identical. Equal values may be shown once. Read-outs that look alike come from different tables or passages of the source.

How the values were obtained:
BZD (central) = assay type: binding; settings: 10 µM
alpha 1A (h) = biological target: T1, alpha 1A (h) (Homo sapiens, UniProt P35348); assay: CEREP panel; assay type: binding; settings: for inhibition at 10 µM: read-out: % inhibition alpha 1A (h)
T1 construct: CEREP
T1 sequence (P35348 1-466): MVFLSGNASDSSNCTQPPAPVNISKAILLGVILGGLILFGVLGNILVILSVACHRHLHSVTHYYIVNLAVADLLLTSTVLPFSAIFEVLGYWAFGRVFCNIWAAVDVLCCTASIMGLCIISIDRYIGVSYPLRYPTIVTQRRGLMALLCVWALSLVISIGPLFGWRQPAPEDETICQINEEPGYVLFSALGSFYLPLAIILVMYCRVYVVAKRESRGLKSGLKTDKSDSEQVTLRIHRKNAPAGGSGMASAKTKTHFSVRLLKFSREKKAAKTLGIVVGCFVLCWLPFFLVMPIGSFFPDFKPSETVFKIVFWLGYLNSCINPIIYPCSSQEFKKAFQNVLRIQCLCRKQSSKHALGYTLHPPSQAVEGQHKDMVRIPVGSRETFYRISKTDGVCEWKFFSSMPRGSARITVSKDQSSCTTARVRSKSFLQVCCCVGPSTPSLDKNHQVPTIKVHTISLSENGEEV

hCB1R [1] = biological target: T2, hCB1R (Homo sapiens, UniProt P21554); assay: biochemical; assay type: biochemical; settings: for Emax: read-out: Emax ± SEM GTPγS hCB1R
T2 construct: host or cells: CHO

mCB1R = biological target: T3, mCB1R (Mus musculus, UniProt P47746); assay: biochemical; assay type: binding
T3 construct: from tissue; host or cells: brain of male C57BL/6J mice

MT3 (ML2) = biological target: T4, MT3 (ML2) (Mesocricetus auratus, UniProt A0ABM2YAB8); assay: CEREP panel; assay type: binding; settings: read-out: % inhibition MT3 (ML2)
T4 construct: CEREP (contract assay)
T4 sequence (A0ABM2YAB8 1-231): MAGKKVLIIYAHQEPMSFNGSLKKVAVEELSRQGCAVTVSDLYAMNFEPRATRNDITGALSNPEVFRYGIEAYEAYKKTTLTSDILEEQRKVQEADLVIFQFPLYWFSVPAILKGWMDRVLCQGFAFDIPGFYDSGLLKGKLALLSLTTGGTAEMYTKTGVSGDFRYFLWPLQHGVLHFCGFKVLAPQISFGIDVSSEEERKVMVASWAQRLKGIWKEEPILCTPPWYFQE

Na+ channel (site 2) = assay type: binding; settings: 10 µM
hCB1R [2] = biological target: T2, hCB1R; assay: cell-based
Human recombinant TRPV1 = biological target: T5, Human recombinant TRPV1 (Homo sapiens, UniProt Q8NER1); assay: cell-based; assay type: cell-based; settings: for EC50: read-out: TRPV1 Potency EC50
T5 construct: expressed in transfected cells; host or cells: HEK293 (TRPV1-HEK-293, gift from John Davis, GlaxoSmithKline)

PPARα (h) = biological target: T6, PPARα (h) (Homo sapiens, UniProt Q07869); assay: CEREP panel; assay type: binding; settings: for inhibition at 10 µM: read-out: % inhibition PPARα (h)
T6 construct: CEREP (contract assay)
T6 sequence (Q07869 1-468): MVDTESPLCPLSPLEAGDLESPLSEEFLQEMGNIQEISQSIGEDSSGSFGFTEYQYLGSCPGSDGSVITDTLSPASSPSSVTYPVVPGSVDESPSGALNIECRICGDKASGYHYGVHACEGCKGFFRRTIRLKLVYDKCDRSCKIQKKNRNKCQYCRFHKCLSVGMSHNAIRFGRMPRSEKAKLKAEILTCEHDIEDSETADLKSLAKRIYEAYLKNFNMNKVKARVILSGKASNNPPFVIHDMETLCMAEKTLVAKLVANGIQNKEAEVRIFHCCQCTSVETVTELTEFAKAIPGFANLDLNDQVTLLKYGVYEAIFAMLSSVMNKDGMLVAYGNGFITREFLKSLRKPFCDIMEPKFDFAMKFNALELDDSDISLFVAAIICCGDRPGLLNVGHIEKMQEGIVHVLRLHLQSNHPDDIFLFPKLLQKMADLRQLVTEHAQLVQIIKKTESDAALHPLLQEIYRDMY

hCB1R [3] = biological target: T2, hCB1R; assay: cell-based; assay type: cell-based
hCB1R [4] = biological target: T2, hCB1R; assay: biochemical; assay type: binding
[5] = test system: AEA cellular uptake in U937 cells; assay: cells; assay type: cell-based, human; settings: for AEA reuptake Efficacy (% inhibition) U937 cells: from dose-response
Rat recombinant TRPV2 = biological target: T7, Rat recombinant TRPV2 (Rattus norvegicus, UniProt Q9WUD2); assay: cell-based; assay type: cell-based; settings: for IC50: vs LPC 3μM, read-out: TRPV2 IC50 for antagonism or desensitization
T7 construct: expressed in transfected cells; host or cells: HEK293 (plasmid a gift from HB Bradshaw, Indiana University)
T7 sequence (Q9WUD2 1-761): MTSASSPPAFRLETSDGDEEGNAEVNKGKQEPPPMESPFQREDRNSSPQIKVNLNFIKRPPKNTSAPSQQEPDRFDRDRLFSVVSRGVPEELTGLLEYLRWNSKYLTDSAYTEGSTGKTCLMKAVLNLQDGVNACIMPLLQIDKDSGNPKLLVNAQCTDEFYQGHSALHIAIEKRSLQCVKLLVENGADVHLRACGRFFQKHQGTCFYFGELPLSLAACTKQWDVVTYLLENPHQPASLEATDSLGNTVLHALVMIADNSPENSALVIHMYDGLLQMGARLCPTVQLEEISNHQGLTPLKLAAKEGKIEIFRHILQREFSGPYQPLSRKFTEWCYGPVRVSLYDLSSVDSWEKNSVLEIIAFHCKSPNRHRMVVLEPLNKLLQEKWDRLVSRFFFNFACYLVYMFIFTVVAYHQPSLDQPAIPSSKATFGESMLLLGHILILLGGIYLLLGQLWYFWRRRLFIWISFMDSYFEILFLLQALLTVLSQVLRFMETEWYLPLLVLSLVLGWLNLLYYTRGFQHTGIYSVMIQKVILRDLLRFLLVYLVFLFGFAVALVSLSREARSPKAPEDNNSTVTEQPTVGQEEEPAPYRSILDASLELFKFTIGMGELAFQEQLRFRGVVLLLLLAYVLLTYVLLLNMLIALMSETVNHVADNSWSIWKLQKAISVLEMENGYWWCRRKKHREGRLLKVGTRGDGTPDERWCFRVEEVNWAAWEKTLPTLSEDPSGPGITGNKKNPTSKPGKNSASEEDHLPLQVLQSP

[6] = i.v., mice; for C0: 1.0-2.0 mg/kg, extrapolated
[7] = TRPV1 IC50 for antagonism or desensitization
[8] = Homo sapiens, U-937, read-out: AEA reuptake IC50 (95% CI) U937 cells
[9] = read-out: TRPV1 IC50 for antagonism or desensitization

T3 sequence (P47746 whole entry): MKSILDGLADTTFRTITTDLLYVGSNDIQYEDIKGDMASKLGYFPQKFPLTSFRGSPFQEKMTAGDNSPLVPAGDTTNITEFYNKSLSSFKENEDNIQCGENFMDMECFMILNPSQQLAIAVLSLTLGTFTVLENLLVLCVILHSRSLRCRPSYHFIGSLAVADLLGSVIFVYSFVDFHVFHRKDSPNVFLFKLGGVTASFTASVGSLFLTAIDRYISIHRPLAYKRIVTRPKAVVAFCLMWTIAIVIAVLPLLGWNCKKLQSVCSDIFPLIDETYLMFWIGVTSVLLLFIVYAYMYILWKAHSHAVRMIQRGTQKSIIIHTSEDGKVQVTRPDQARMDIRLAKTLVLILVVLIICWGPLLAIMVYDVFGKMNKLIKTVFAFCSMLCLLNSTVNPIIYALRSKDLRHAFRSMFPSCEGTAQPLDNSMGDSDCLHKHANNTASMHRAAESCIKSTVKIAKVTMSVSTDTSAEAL
T2 sequence (P21554 whole entry): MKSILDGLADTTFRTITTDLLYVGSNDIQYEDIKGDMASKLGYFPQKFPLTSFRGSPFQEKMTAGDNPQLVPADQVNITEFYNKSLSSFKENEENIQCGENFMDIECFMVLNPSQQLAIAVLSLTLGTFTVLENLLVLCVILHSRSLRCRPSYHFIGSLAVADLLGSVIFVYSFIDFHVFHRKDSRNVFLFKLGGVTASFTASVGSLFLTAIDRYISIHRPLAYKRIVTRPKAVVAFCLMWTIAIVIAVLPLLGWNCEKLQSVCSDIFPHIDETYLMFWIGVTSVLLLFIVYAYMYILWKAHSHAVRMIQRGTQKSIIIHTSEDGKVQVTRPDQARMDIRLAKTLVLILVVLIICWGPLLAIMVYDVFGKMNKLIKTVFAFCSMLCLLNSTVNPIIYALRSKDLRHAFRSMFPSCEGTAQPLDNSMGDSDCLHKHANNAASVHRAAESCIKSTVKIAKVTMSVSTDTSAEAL
T5 sequence (Q8NER1 whole entry): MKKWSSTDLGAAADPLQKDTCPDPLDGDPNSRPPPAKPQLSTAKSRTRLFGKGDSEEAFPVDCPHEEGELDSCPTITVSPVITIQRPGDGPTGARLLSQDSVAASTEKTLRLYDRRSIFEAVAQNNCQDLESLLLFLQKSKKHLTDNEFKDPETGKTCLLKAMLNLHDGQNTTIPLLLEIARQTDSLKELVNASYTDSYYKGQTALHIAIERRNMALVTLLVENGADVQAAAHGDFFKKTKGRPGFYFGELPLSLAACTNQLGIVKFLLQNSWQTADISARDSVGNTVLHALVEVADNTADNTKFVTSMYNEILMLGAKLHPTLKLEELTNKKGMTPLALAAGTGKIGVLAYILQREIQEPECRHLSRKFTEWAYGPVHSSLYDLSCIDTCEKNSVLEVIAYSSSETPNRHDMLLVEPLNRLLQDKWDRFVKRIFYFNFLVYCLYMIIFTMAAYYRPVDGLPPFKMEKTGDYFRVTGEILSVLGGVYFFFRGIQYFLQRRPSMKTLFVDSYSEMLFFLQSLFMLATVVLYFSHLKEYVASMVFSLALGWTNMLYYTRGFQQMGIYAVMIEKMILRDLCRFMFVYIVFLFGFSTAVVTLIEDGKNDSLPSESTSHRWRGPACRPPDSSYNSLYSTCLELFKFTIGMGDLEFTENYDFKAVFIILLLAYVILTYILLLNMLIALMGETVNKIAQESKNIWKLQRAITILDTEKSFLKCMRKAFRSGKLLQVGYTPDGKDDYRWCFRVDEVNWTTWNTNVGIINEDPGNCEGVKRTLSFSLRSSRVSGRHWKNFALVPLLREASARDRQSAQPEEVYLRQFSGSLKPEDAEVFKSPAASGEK

SMILES	% inhibition BZD (central) (BZD (central))	Emax (hCB1R [1])	Ki (mCB1R)	inhibition at 10 µM (MT3 (ML2))	% inhibition Na+ channel (site 2) (Na+ channel (site 2))	TRPV1 Efficacy (% ionomycin 4μM) (Human recombinant TRPV1)	IC50 (Human recombinant TRPV1; [7])	IC50 [5, 8]	AEA reuptake Efficacy (% inhibition) U937 cells [5]	TRPV2 Efficacy (% ionomycin 4μM) (Rat recombinant TRPV2)	IC50 (Rat recombinant TRPV2)	Emax ± SEM cAMP hCB1R (hCB1R [2])	pEC50 ± SEM cAMP hCB1R (hCB1R [2])	IC50 (Human recombinant TRPV1; [9])	% inhibition PPARα (h) (PPARα (h); 10 µM)	% inhibition alpha 1A (h) (alpha 1A (h); 10 µM)	pEC50 ± SEM GIRK hCB1R (hCB1R [3])	pEC50 ± SEM GTPγS hCB1R (hCB1R [1])	AUCinf [6]	AUCinf/dose [6]	other results
CCCCCCC(C)(C)c1ccc([C@@H]2C[C@H](O)CC[C@H]2CCCO)c(O)c1 [CP55940]	-9%	92 ± 5%	0.00158 µM	22%	71%																inhibition at 10 µM (alpha 1A (h); 10 µM): 57%
CCCCCCC(C)(C)c1cc(OC)c([C@@H]2C=C(CO)[C@@H]3C[C@H]2C3(C)C)c(OC)c1 [HU308]	-26%	17 ± 9%	0.832 µM		30%	< 10%	69 ± 5.7 µM	1.81 µM	62%	< 10%	> 100 µM										EC50 (hCB1R [2]; pEC50 ± SEM cAMP hCB1R): > 10 µM; Emax (hCB1R [2]; read-out: Emax ± SEM cAMP hCB1R): 18 ± 4%; inhibition at 10 µM (PPARα (h)): -21%; inhibition at 10 µM (alpha 1A (h)): 2%; EC50 (hCB1R [3]): > 10 µM; Emax (hCB1R [3]; AtT20, read-out: Emax ± SEM GIRK hCB1R): 15 ± 10%; Ki (hCB1R [4]): > 10 µM; EC50 (hCB1R [1]): > 10 µM
CCCCCCC(C)(C)c1cc(OC)c(C2=C[C@H]3CC[C@]2(CO)C3(C)C)c(OC)c1 [HU910]	0%				5%	< 10%			70%	< 10%	> 100 µM	28 ± 8	< 5	> 100 µM	-28%	1%	< 5	< 5	6060 ng·h/mL	6060 kg·ng·h/mL/mg	Emax ± SEM GIRK hCB1R (hCB1R [3]; normalized to CP55940): 7 ± 5%; pKi ± SEM hCB1R (hCB1R [4]; CHO membranes, Leiden, HU210 and SR144528 from Roche): < 5; pKi ± SEM mCB1R (mCB1R; mouse brain membranes): 6.14±0.13; AUClast [6]: 5960 ng·h/mL; CL [6]: 2.83 mL/min/kg; T1/2 [6]: 7.4 h and 7 h; C0 [6]: 55600 ng/mL; IC50 ([5]; read-out: AEA reuptake IC50 (95% CI) U937 cells): 1.56 µM
CCCC(C)(C)c1ccc2c(c1)OC(C)(C)[C@@H]1CC=C(C)C[C@@H]21 [JWH133]	-22%				-20%	24.6%				< 10%	> 100 µM	37 ± 6	< 5	77.7 ± 3 µM	-25%	-5%	< 5	7.37 ± 0.16	1750 ng·h/mL	1090 kg·ng·h/mL/mg	EC50 (Human recombinant TRPV1): 8.2 µM; Emax ± SEM GIRK hCB1R (hCB1R [3]): 5 ± 1; pKi ± SEM hCB1R (hCB1R [4]): < 5; Emax ± SEM GTPγS hCB1R (hCB1R [1]): 20%; pKi ± SEM mCB1R (mCB1R): 6.09 ± 0.13; AUClast [6]: 1650 ng·h/mL; CL [6]: 15.3 mL/min/kg; T1/2 [6]: 1.1 h and 1 h; Vss [6]: 1.32 L/kg and 1 to 3 L/kg; C0 [6]: 3870 ng/mL
Cc1c(C(=O)NN2CCCCC2)nn(-c2ccc(Cl)cc2Cl)c1-c1ccc(Cl)cc1 [SR141716A]				4%		17.5%	33.7 µM and 11.5 µM	1.91 µM	57%	< 10%	> 100 µM										EC50 (Human recombinant TRPV1): 12 µM; inhibition at 10 µM (PPARα (h); 10 µM): -5%
